From the supplement of paper PMC6045584
± gives the standard deviation of the averaged measurements.

Tests used:
[1] = compound: T1, CC[C@@H]1C(=O)N(C)c2cnc(Nc3ccc(C(=O)NC4CCN(C)CC4)cc3OC)nc2N1C1CCCC1 [BI-2536]; experiment: area under dose-response curve of surviving fraction (unscaled, Aref=0) (surviving fraction x log10(nM)); higher = more resistant; conditions: exposure time: 5 days; dose range 0.5-1000 nM
Outline: (§1)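 Surviving fractions were fitted by 3-parameter logistic regression in the drc R package to give dose-response survival curves. They came from tumour cell lines treated for five days with eight inhibitor concentrations from 0.5 to 1000 nM and read by CellTiter-Glo luminescence against DMSO-only wells. The area under the curve is the unscaled activity area. It was calculated over log10 dose with Aref = 0.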

[2] = compound: T2, CN(C)C/C=C/C(=O)Nc1cc2c(Nc3ccc(F)c(Cl)c3)ncnc2cc1O[C@H]1CCOC1 [AFATINIB]; experiment: as above; conditions: exposure time: 5 days; dose range 0.5-1000 nM
Outline: as §1

[3] = compound: T3, Nc1nc2[nH]cnc2c(=S)[nH]1 [TIOGUANINE]; experiment: as above; conditions: exposure time: 5 days; dose range 0.5-1000 nM
Outline: as §1

[4] = compound: T4, CCCCCCCCCCCCCCCC(=O)Nc1ccn([C@@H]2O[C@H](CO)[C@@H](O)[C@@H]2C#N)c(=O)n1 [SAPACITABINE]; experiment: as above; conditions: exposure time: 5 days; dose range 0.5-1000 nM
Outline: as §1

[5] = compound: T5, C=CC(=O)Nc1cc2c(Nc3ccc(F)c(Cl)c3)ncnc2cc1OCCCN1CCOCC1 [CANERTINIB]; experiment: as above; conditions: exposure time: 5 days; dose range 0.5-1000 nM
Outline: as §1

[6] = compound: Cn1cc(C2=Nc3cc(NC(=O)C(N)C4CCCCC4)cc4c3C2=CNNC4=O)cn1; experiment: as above; conditions: exposure time: 5 days; dose range 0.5-1000 nM
Outline: as §1

[7] = compound: T6, CNC(=O)c1ccc(N2C(=S)N(c3ccc(C#N)c(C(F)(F)F)c3)C(=O)C2(C)C)cc1F [MDV3100]; experiment: as above; conditions: exposure time: 5 days; dose range 0.5-1000 nM
Outline: as §1

[8] = compound: T7, CC1(C)CC(=O)c2c(C(F)(F)F)nn(-c3ccc(C(N)=O)c(N[C@H]4CC[C@H](OC(=O)CN)CC4)c3)c2C1 [SNX-5422]; experiment: as above; conditions: exposure time: 5 days; dose range 0.5-1000 nM
Outline: as §1

[9] = compound: T1, BI-2536; experiment: surviving fraction relative to DMSO-only wells; higher = less growth inhibition; conditions: exposure time: 5 days
Outline: (§2)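 In 384-well plates, 250–500 log-phase tumour cells per well were given 24 hours before five days of continuous exposure to inhibitors at 0.5, 1, 5, 10, 50, 100, 500 and 1000 nM. Surviving fraction is luminescence from CellTiter-Glo, normalised to the median of wells containing DMSO alone. Reading took place after 10 minutes at room temperature.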

[10] = compound: T2, AFATINIB; experiment: as above; conditions: exposure time: 5 days
Outline: as §2

[11] = compound: T3, TIOGUANINE; experiment: as above; conditions: exposure time: 5 days
Outline: as §2

[12] = compound: T4, SAPACITABINE; experiment: as above; conditions: exposure time: 5 days
Outline: as §2

[13] = compound: T5, CANERTINIB; experiment: as above; conditions: exposure time: 5 days
Outline: as §2

[14] = compound: Cn1cc(C2=Nc3cc(NC(=O)C(N)C4CCCCC4)cc4c3C2=CNNC4=O)cn1; experiment: as above; conditions: exposure time: 5 days
Outline: as §2

[15] = compound: T6, MDV3100; experiment: as above; conditions: exposure time: 5 days
Outline: as §2

[16] = compound: T7, SNX-5422; experiment: as above; conditions: exposure time: 5 days
Outline: as §2

SNU475 LIVER
area under dose-response curve [1]: 1.41 | area under dose-response curve [2]: 2.99 | area under dose-response curve [3]: 3.14 | area under dose-response curve [4]: 2.23 | area under dose-response curve [5]: 2.91 | area under dose-response curve [6]: 3 | area under dose-response curve [7]: 2.8 | area under dose-response curve [8]: 2.29 | surviving fraction ([9]; 0.5 nM): 1.03 ± 0.05 | surviving fraction ([9]; 1 nM): 1.01 ± 0.065 | surviving fraction ([9]; 5 nM): 0.587 ± 0.06 | surviving fraction ([9]; 10 nM): 0.255 ± 0.026 | surviving fraction ([9]; 50 nM): 0.2 ± 0.033 | surviving fraction ([9]; 100 nM): 0.16 ± 0.0044 | surviving fraction ([9]; 500 nM): 0.169 ± 0.0055 | surviving fraction ([9]; 1000 nM): 0.174 ± 0.018 | surviving fraction ([10]; 0.5 nM): 1.01 ± 0.03 | surviving fraction ([10]; 1 nM): 0.985 ± 0.029 | surviving fraction ([10]; 5 nM): 0.953 ± 0.062 | surviving fraction ([10]; 10 nM): 0.937 ± 0.028 | surviving fraction ([10]; 50 nM): 0.922 ± 0.024 | surviving fraction ([10]; 100 nM): 0.893 ± 0.054 | surviving fraction ([10]; 500 nM): 0.717 ± 0.012 | surviving fraction ([10]; 1000 nM): 0.432 ± 0.027 | surviving fraction ([11]; 0.5 nM): 0.949 ± 0.025 | surviving fraction ([11]; 1 nM): 0.963 ± 0.02 | surviving fraction ([11]; 5 nM): 0.961 ± 0.036 | surviving fraction ([11]; 10 nM): 0.957 ± 0.028 | surviving fraction ([11]; 50 nM): 0.966 ± 0.099 | surviving fraction ([11]; 100 nM): 0.992 ± 0.025 | surviving fraction ([11]; 500 nM): 0.899 ± 0.054 | surviving fraction ([11]; 1000 nM): 0.916 ± 0.012 | surviving fraction ([12]; 0.5 nM): 0.888 ± 0.063 | surviving fraction ([12]; 1 nM): 0.726 ± 0.057 | surviving fraction ([12]; 5 nM): 0.83 ± 0.03 | surviving fraction ([12]; 10 nM): 0.365 ± 0.03 | surviving fraction ([12]; 50 nM): 0.962 ± 0.057 | surviving fraction ([12]; 100 nM): 0.745 ± 0.025 | surviving fraction ([12]; 500 nM): 0.573 ± 0.016 | surviving fraction ([12]; 1000 nM): 0.291 ± 0.015 | surviving fraction ([13]; 0.5 nM): 0.917 ± 0.0099 | surviving fraction ([13]; 1 nM): 0.8847 ± 0.0057 | surviving fraction ([13]; 5 nM): 0.88 ± 0.051 | surviving fraction ([13]; 10 nM): 0.85 ± 0.041 | surviving fraction ([13]; 50 nM): 0.9373 ± 0.0055 | surviving fraction ([13]; 100 nM): 0.908 ± 0.024 | surviving fraction ([13]; 500 nM): 0.869 ± 0.022 | surviving fraction ([13]; 1000 nM): 0.808 ± 0.058 | surviving fraction ([14]; 0.5 nM): 0.965 ± 0.028 | surviving fraction ([14]; 1 nM): 0.967 ± 0.053 | surviving fraction ([14]; 5 nM): 0.987 ± 0.013 | surviving fraction ([14]; 10 nM): 1.01 ± 0.02 | surviving fraction ([14]; 50 nM): 0.892 ± 0.038 | surviving fraction ([14]; 100 nM): 0.898 ± 0.046 | surviving fraction ([14]; 500 nM): 0.731 ± 0.034 | surviving fraction ([14]; 1000 nM): 0.514 ± 0.082 | surviving fraction ([15]; 0.5 nM): 1.03 ± 0.034 | surviving fraction ([15]; 1 nM): 0.903 ± 0.024 | surviving fraction ([15]; 5 nM): 1 ± 0.039 | surviving fraction ([15]; 10 nM): 0.438 ± 0.011 | surviving fraction ([15]; 50 nM): 1.01 ± 0.018 | surviving fraction ([15]; 100 nM): 0.902 ± 0.016 | surviving fraction ([15]; 500 nM): 0.974 ± 0.014 | surviving fraction ([15]; 1000 nM): 0.516 ± 0.02 | surviving fraction ([16]; 0.5 nM): 1.024 ± 0.0066 | surviving fraction ([16]; 1 nM): 1.05 ± 0.045 | surviving fraction ([16]; 5 nM): 1.06 ± 0.016 | surviving fraction ([16]; 10 nM): 1.01 ± 0.068 | surviving fraction ([16]; 50 nM): 0.565 ± 0.033 | surviving fraction ([16]; 100 nM): 0.358 ± 0.011 | surviving fraction ([16]; 500 nM): 0.245 ± 0.014 | surviving fraction ([16]; 1000 nM): 0.234 ± 0.012
